Reference: patent publication US20250288589A1, “PYRIDOPYRIMIDINES AND METHODS OF THEIR USE” (Kineta, Inc., priority 2021, published 2025)

The molecules below were run against T1, full-length human PIKFYVE (Homo sapiens, UniProt Q9Y2I7, L932S/Q1183K/Q995L/S1033A/S696N/T998S) (assay: PIKfyve biochemical assay (ADP-Glo Kinase assay, Carna Biosciences)). Settings: GST-PIKFYVE, 10 μM to 3 nM in duplicate, read-out: hPIKfyve IC50.
T1 construct: A full-length human PIKFYVE [1-2098(end) amino acids and S696N, L932S, Q995L, T998S, S1033A and Q1183K; purchased Carna Biosciences; host or cells: baculovirus expression system
T1 sequence (Q9Y2I7 whole entry S696N/L932S/Q995L/T998S/S1033A/Q1183K): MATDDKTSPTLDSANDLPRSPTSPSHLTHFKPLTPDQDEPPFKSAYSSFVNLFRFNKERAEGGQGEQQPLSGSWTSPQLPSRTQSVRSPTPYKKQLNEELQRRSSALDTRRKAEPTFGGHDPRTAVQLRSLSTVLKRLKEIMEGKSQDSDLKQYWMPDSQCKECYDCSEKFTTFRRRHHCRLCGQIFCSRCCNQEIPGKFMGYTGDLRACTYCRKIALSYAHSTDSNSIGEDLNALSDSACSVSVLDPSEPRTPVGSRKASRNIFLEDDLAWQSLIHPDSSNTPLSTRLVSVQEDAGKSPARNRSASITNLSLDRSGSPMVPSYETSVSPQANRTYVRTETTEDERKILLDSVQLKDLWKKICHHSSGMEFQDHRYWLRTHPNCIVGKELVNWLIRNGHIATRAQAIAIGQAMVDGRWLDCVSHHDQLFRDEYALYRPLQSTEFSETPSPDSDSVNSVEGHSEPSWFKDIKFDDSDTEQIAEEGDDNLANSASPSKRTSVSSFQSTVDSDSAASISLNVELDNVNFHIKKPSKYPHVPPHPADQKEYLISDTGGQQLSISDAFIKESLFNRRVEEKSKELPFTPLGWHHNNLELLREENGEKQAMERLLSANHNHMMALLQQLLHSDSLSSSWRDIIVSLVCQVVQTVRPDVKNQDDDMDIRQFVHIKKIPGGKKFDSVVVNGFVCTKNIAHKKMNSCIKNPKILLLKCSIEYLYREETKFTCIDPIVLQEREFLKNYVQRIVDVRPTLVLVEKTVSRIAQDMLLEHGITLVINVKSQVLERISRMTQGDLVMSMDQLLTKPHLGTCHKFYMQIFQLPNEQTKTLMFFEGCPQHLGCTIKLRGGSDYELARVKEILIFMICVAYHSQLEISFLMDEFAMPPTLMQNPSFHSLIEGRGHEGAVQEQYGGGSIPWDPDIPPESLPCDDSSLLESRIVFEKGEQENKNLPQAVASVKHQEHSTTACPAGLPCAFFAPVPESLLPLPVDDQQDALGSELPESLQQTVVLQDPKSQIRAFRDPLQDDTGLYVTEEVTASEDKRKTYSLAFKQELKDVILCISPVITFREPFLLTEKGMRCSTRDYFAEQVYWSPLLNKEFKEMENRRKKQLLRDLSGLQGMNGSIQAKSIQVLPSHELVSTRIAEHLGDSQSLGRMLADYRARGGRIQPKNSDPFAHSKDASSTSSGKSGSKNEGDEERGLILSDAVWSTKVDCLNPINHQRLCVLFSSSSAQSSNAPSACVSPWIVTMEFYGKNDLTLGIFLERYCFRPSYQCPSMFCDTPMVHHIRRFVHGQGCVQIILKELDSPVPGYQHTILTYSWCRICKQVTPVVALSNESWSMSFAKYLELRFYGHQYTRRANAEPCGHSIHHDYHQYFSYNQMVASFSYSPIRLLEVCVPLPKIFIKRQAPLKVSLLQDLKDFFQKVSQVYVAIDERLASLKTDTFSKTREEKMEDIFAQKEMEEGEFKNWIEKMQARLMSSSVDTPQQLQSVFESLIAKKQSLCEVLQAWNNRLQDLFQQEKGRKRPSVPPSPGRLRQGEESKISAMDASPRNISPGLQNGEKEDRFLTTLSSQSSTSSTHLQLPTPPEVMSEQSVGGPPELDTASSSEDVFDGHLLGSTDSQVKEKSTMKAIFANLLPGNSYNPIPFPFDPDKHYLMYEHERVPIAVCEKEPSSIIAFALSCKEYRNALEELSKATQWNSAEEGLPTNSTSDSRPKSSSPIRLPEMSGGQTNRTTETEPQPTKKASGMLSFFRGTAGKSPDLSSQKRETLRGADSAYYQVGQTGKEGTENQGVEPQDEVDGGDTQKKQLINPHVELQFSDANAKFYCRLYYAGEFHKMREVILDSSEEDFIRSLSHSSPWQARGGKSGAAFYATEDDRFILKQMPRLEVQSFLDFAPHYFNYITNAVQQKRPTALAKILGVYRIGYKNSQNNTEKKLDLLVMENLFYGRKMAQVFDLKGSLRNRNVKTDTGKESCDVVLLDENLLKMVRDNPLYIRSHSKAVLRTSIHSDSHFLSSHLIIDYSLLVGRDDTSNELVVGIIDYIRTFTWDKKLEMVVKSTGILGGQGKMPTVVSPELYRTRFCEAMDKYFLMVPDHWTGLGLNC
Source text: (§1) PIKfyve Biochemical Assay. The biochemical PIKFyve inhibition assays were run by Carna Biosciences according to proprietary methodology based on the Promega ADP-Glo™ Kinase assay. A full-length human PIKFYVE [1-2098(end) amino acids and S696N, L932S, Q995L, T998S, S1033A and Q1183K of the protein having the sequence set forth in NCBI Reference Sequence No. NP_055855.2] was expressed as N-terminal GST-fusion protein (265 kDa) using baculovirus expression system. GST-PIKFYVE was purified by using glutathione sepharose chromatography and used in an ADP-Glo™ Kinase assay (Promega). Reactions were set up by adding the test compound solution, substrate solution, ATP solution and kinase solution, each at 4× final concentrations. Reactions were prepared with assay buffer (50 mM MOPS, 1 mM DTT, pH7.2), mixed, and incubated in black 384 well polystyrene plates for 1 hour at room temperature. ADP-Glo™ reagent was then added for 40 minutes, followed by kinase detection reagent for an additional 40 minutes. The kinase activity was evaluated by detecting relative light units on a luminescence plate reader. Samples were run in duplicate from 10 μM to 3 nM. […] IC50 values were calculated from concentration vs % inhibition curves by fitting to a four-parameter logistic curve.
as §1, with “The” for “PIKfyve Biochemical Assay. The”, “accession number” for “the protein having the sequence set forth in NCBI Reference Sequence No.”, “uM” for “μM”
`Oc1cnc(-c2ccccc2)nc1-c1nc(N2CCOCC2)c2ncccc2n1` [Compound 94, 4-(4-morpholinopyrido[3,2-d]pyrimidin-2-yl)-2-phenylpyrimidin-5-ol] gave an IC50 of 10 to 100 nM.
For `O=c1[nH]c(-c2ccccc2)nn1-c1nc(N2CCOCC2)c2ncccc2n1` [Compound 82, 2-(4-morpholinopyrido[3,2-d]pyrimidin-2-yl)-5-phenyl-4H-1,2,4-triazol-3-one], the IC50 was 100 to 1000 nM.
`Clc1nc(N2CCOCC2)c2ncc(Cc3cccnc3)cc2n1` [Compound 128, 4-(2-chloro-7-(pyridin-3-ylmethyl)pyrido[3,2-d]pyrimidin-4-yl)morpholine] was tested, and the IC50 was > 10000 nM.
With `c1ccc(-c2ccn(-c3nc(N4CCOCC4)c4ncc(N5CCNCC5)cc4n3)n2)cc1` [Compound 42, 4-[2-(3-phenylpyrazol-1-yl)-7-piperazin-1-yl-pyrido[3,2-d]pyrimidin-4-yl]morpholine] the IC50 was 10 to 100 nM.
For `c1cc(-c2ccn(-c3nc(N4CCOCC4)c4ncc(C5CCOCC5)cc4n3)n2)ncn1` [Compound 53, 4-[2-(3-pyrimidin-4-ylpyrazol-1-yl)-7-tetrahydropyran-4-yl-pyrido[3,2-d]pyrimidin-4-yl]morpholine], the IC50 was > 10000 nM.
`c1cncc(-c2ccn(-c3nc(N4CCOCC4)c4ncccc4n3)n2)c1` [Compound 13, 4-(2-(3-(pyridin-3-yl)-1H-pyrazol-1-yl)pyrido[3,2-d]pyrimidin-4-yl)morpholine] showed an IC50 of 1000 to 10000 nM.
`c1cc(-c2ccn(-c3nc(N4CCOCC4)c4ncc(C5CCOCC5)cc4n3)n2)ccn1` [Compound 51, 4-[2-[3-(4-pyridyl)pyrazol-1-yl]-7-tetrahydropyran-4-yl-pyrido[3,2-d]pyrimidin-4-yl]morpholine] gave an IC50 of 1000 to 10000 nM.
In the case of `Oc1cccc(-c2nccc(-c3nc(N4CCOCC4)c4ncccc4n3)n2)c1` [Compound 101, 3-(4-(4-morpholinopyrido[3,2-d]pyrimidin-2-yl)pyrimidin-2-yl)phenol], the IC50 is reported as 100 to 1000 nM.
With `COc1cnc2c(N3CCOCC3)nc(-n3ccc(-c4cccc(C)c4)n3)nc2c1` [Compound 54, 4-(7-methoxy-2-(3-m-tolyl-1H-pyrazol-1-yl)pyrido[3,2-d]pyrimidin-4-yl)morpholine] the IC50 was < 10 nM.
Molecule `c1ccc(-c2cncc(-c3nc(N4CCOCC4)c4ncccc4n3)n2)cc1` [Compound 97, 4-(2-(6-phenylpyrazin-2-yl)pyrido[3,2-d]pyrimidin-4-yl)morpholine] has an IC50 of 100 to 1000 nM.
With `O=C1N(c2nc(N3CCOCC3)c3ncccc3n2)CCN1C1CCCC1` [Compound 78, 1-cyclopentyl-3-(4-morpholinopyrido[3,2-d]pyrimidin-2-yl)imidazolidin-2-one] the IC50 was > 10000 nM.
For `c1ccc(-c2nccc(-c3nc(N4CCOCC4)c4ncccc4n3)n2)cc1` [Compound 90, 4-(2-(2-phenylpyrimidin-4-yl)pyrido[3,2-d]pyrimidin-4-yl)morpholine], the IC50 was 10 to 100 nM.
For `CC1COCCN1c1nc(-n2ccc(-c3ccccc3)n2)nc2cccnc12` (stereo not shown) [Compound 31, 3-methyl-4-(2-(3-phenyl-1H-pyrazol-1-yl)pyrido[3,2-d]pyrimidin-4-yl)morpholine], the IC50 was 100 to 1000 nM.
In the case of `c1ncc(-c2ccn(-c3nc(N4CCOCC4)c4ncc(C5CCOCC5)cc4n3)n2)cn1` [Compound 50, 4-[2-(3-pyrimidin-5-ylpyrazol-1-yl)-7-tetrahydropyran-4-yl-pyrido[3,2-d]pyrimidin-4-yl]morpholine], the IC50 is reported as > 10000 nM.
`c1ccc(-c2ccn(-c3nc(N4CCOCC4)c4ncc(C5CCNCC5)cc4n3)n2)cc1` [Compound 36, 4-(2-(3-phenyl-1H-pyrazol-1-yl)-7-(piperidin-4-yl)pyrido[3,2-d]pyrimidin-4-yl)morpholine] was tested, and the IC50 was 10 to 100 nM.
`c1ccc(-c2ccn(-c3nc(N4CCOCC4)c4nc(C5CCOCC5)ccc4n3)n2)cc1` [Compound 9, 4-[2-(3-phenylpyrazol-1-yl)-6-tetrahydropyran-4-yl-pyrido[3,2-d]pyrimidin-4-yl]morpholine] was tested, and the IC50 was 10 to 100 nM.
In the case of `Cc1cnc(-c2ccccc2)nc1-c1nc(N2CCOCC2)c2ncccc2n1` [Compound 96, 4-(2-(5-methyl-2-phenylpyrimidin-4-yl)pyrido[3,2-d]pyrimidin-4-yl)morpholine], the IC50 is reported as 1000 to 10000 nM.
For `c1ccc(-c2ccn(-c3nc(N4CCOCC4)c4ncc(-c5ccncc5)cc4n3)n2)cc1` [Compound 48, 4-(2-(3-phenyl-1H-pyrazol-1-yl)-7-(pyridin-4-yl)pyrido[3,2-d]pyrimidin-4-yl)morpholine], the IC50 was 10 to 100 nM.
`Fc1ccccc1-c1ccn(-c2nc(N3CCOCC3)c3ncc(C4CCOCC4)cc3n2)n1` [Compound 19, 4-[2-[3-(2-fluorophenyl)pyrazol-1-yl]-7-tetrahydropyran-4-yl-pyrido[3,2-d]pyrimidin-4-yl]morpholine] was tested, and the IC50 was 100 to 1000 nM.
In the case of `c1ccc(-c2nccc(-c3nc(N4CCOCC4)c4ncc(N5CCOCC5)cc4n3)n2)cc1` [Compound 95, 4,4′-(2-(2-phenylpyrimidin-4-yl)pyrido[3,2-d]pyrimidine-4,7-diyl)dimorpholine], the IC50 is reported as 10 to 100 nM.
`c1coc(-c2nccc(-c3nc(N4CCOCC4)c4ncccc4n3)n2)c1` [Compound 99, 4-(2-(2-(furan-2-yl)pyrimidin-4-yl)pyrido[3,2-d]pyrimidin-4-yl)morpholine] gave an IC50 of 1000 to 10000 nM.
Molecule `c1cnc2c(N3CCOCC3)nc(-c3n[nH]c4ccccc34)nc2c1` [Compound 69, 4-[2-(1H-indazol-3-yl)pyrido[3,2-d]pyrimidin-4-yl]morpholine] has an IC50 of 1000 to 10000 nM.
`Cc1cccc(-c2ncc(O)c(-c3nc(N4CCOCC4)c4ncccc4n3)n2)c1` [Compound 103, 4-(4-morpholinopyrido[3,2-d]pyrimidin-2-yl)-2-m-tolylpyrimidin-5-ol] showed an IC50 of 10 to 100 nM.
`Fc1cccc(Nc2nc(N3CCOCC3)c3ncc(Cc4cccnc4)cc3n2)c1` [Compound 129, N-(3-fluorophenyl)-4-morpholino-7-(pyridin-3-ylmethyl)pyrido[3,2-d]pyrimidin-2-amine] was tested, and the IC50 was 100 to 1000 nM.
`Fc1ccc(-c2ccn(-c3nc(N4CCOCC4)c4ncc(C5CCOCC5)cc4n3)n2)cc1` [Compound 20, 4-[2-[3-(4-fluorophenyl)pyrazol-1-yl]-7-tetrahydropyran-4-yl-pyrido[3,2-d]pyrimidin-4-yl]morpholine] was tested, and the IC50 was 10 to 100 nM.
In the case of `c1ccc2c(c1)cnn2-c1nc(N2CCOCC2)c2ncccc2n1` [Compound 109, 4-(2-indazol-1-ylpyrido[3,2-d]pyrimidin-4-yl)morpholine], the IC50 is reported as 100 to 1000 nM.
With `c1cc(Oc2nc(N3CCOCC3)c3ncccc3n2)cc(-c2cn[nH]c2)c1` [Compound 47, 4-(2-(3-(1H-pyrazol-4-yl)phenoxy)pyrido[3,2-d]pyrimidin-4-yl)morpholine] the IC50 was > 10000 nM.
`Oc1ccc(-c2ccccc2)nc1-c1nc(N2CCOCC2)c2ncccc2n1` [Compound 108, 2-(4-morpholinopyrido[3,2-d]pyrimidin-2-yl)-6-phenylpyridin-3-ol] was tested, and the IC50 was 10 to 100 nM.
For `Oc1cccc(/C=N/Nc2nc(N3CCOCC3)c3ncccc3n2)c1` [Compound 114, (E)-3-((2-(4-morpholinopyrido[3,2-d]pyrimidin-2-yl)hydrazono)methyl)phenol], the IC50 was 100 to 1000 nM.
With `COc1ccc(-c2ccn(-c3nc(N4CCOCC4)c4ncccc4n3)n2)cc1` [Compound 17, 4-(2-(3-(4-methoxyphenyl)-1H-pyrazol-1-yl)pyrido[3,2-d]pyrimidin-4-yl)morpholine] the IC50 was 100 to 1000 nM.
`COc1cccc(-c2cnn(-c3nc(N4CCOCC4)c4ncc(C(=O)O)cc4n3)c2)c1` [Compound 44, 2-(4-(3-methoxyphenyl)-1H-pyrazol-1-yl)-4-morpholinopyrido[3,2-d]pyrimidine-7-carboxylic acid] gave an IC50 of 10 to 100 nM.
For `Fc1cccc(-c2ccn(-c3nc(N4CCOCC4)c4ncc(C5CCOCC5)cc4n3)n2)c1` [Compound 22, 4-[2-[3-(3-fluorophenyl)pyrazol-1-yl]-7-tetrahydropyran-4-yl-pyrido[3,2-d]pyrimidin-4-yl]morpholine], the IC50 was 10 to 100 nM.
For `Oc1cccc(-c2cnn(-c3nc(N4CCOCC4)c4ncccc4n3)c2)c1` [Compound 46, 3-(1-(4-morpholinopyrido[3,2-d]pyrimidin-2-yl)-1H-pyrazol-4-yl)phenol], the IC50 was < 10 nM.
For `c1cc(-c2nc(N3CCOCC3)c3ncccc3n2)nc(C2CCNCC2)c1` [Compound 92, 4-[2-[6-(4-piperidyl)-2-pyridyl]pyrido[3,2-d]pyrimidin-4-yl]morpholine], the IC50 was 1000 to 10000 nM.
